Laboratory results as given in patent publication US10918768B2, “Human skin equivalents expressing exogenous polypeptides” (Stratatech Corporation, priority 2003, dated 2021).

Test system: Staphylococcus carnosus
Test: antimicrobial activity assay (viable bacteria, CFU/ml)
Format: cell-based
Conditions: synthetic peptide standard curve; 37° C. for 1.5 hr
Experimental: The antimicrobial activity assay employed Escherichia coli and Staphylococcus carnosus and is a modification of the protocol described by Porter and coworkers (Porter, E. M., et al., Infect Immun, 1997. 65(6): p. 2396-401). Briefly, gram-positive or gram-negative bacteria are grown overnight. The following day the test organisms are subcultured for 2.5 hr and working dilutions of 10^4 bacteria/ml for Escherichia coli or 10^5 bacteria/ml of Staphylococcus carnosus in 10 mM sodium phosphate (pH 7.4)-1% TSB are created. All the reactions mix 50 μl of experimental reagent (lysis, supernatants or purified protein) with 50 μl of bacterial suspension. These reactions are then incubated at 37° C. for 1.5 hr. The reactions are diluted 100-fold in 10 mM sodium phosphate (pH 7.4)-1% TSB and plated on TSB plates using a spiral plater (Spiral Biotech, Norwood, Mass.). The plates are then incubated for 12 to 16 hr at 37° C. Colonies on these plates are counted and the number of viable bacteria is determined and expressed as colony forming units per milliliter (CFU/ml).
This example describes the development of an assay to detect LL-37 antimicrobial activity. […] A standard curve for the antimicrobial activity of LL-37 was determined for gram-positive bacteria, S. carnosus using this synthetic peptide.

`CC[C@H](C)[C@H](NC(=O)[C@H](CCCCN)NC(=O)[C@H](CCC(=O)O)NC(=O)[C@H](CCCCN)NC(=O)[C@H](CO)NC(=O)[C@H](CCCCN)NC(=O)[C@H](CCCNC(=N)N)NC(=O)[C@H](Cc1ccccc1)NC(=O)[C@H](Cc1ccccc1)NC(=O)[C@H](CC(=O)O)NC(=O)CNC(=O)[C@H](CC(C)C)NC(=O)[C@@H](N)CC(C)C)C(=O)NCC(=O)N[C@@H](CCCCN)C(=O)N[C@@H](CCC(=O)O)C(=O)N[C@@H](Cc1ccccc1)C(=O)N[C@@H](CCCCN)C(=O)N[C@@H](CCCNC(=N)N)C(=O)N[C@H](C(=O)N[C@H](C(=O)N[C@@H](CCC(N)=O)C(=O)N[C@@H](CCCNC(=N)N)C(=O)N[C@H](C(=O)N[C@@H](CCCCN)C(=O)N[C@@H](CC(=O)O)C(=O)N[C@@H](Cc1ccccc1)C(=O)N[C@@H](CC(C)C)C(=O)N[C@@H](CCCNC(=N)N)C(=O)N[C@@H](CC(N)=O)C(=O)N[C@@H](CC(C)C)C(=O)N[C@H](C(=O)N1CCC[C@H]1C(=O)N[C@@H](CCCNC(=N)N)C(=O)N[C@H](C(=O)N[C@@H](CCC(=O)O)C(=O)N[C@@H](CO)C(=O)O)[C@@H](C)O)C(C)C)[C@@H](C)CC)C(C)C)[C@@H](C)CC` [LL-37] was tested, and the “concentration necessary to kill 50% (LC50) of S. carnosus” value was 0.9 mg/L.
